Test results reported in patent US9328083B2, “2-aminated methylene or 2-esterified methylene tanshinone derivatives, and preparation method and application thereof” (HANGZHOU BENSHENG PHARMACEUTICAL CO., LTD., priority 2011, dated 2016).
≈ marks a conversion by molar mass, not a printed value. One block for each compound: values may come before it.

Tests used:
[1] = test system: Hela (human cervical cancer cell); assay: MTT growth inhibition of human solid tumor cells, 72 h; format: cell-based; settings: Homo sapiens, HeLa, 72 h; for IC50: read-out: IC50; for IC90: read-out: IC90
In short: (§1)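 Viability was read by MTT after 72 h of compound exposure at 37°C, 5% CO2, in cells seeded at 4000 per well and pre-grown for 24 h in DMEM high glucose plus 10% FBS. Test solutions came from a 10 mg/mL DMSO stock diluted in medium.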

[2] = test system: CaES-17 (esophageal cancer cell); assay: as above; format: cell-based; settings: Homo sapiens, CaEs17, CaEs-17, 72 h; for IC50: read-out: IC50; for IC90: read-out: IC90
In short: as §1

[3] = test system: CNE (nasopharyngeal carcinoma cell); assay: as above; format: cell-based; settings: Homo sapiens; for IC50: read-out: IC50; for IC90: read-out: IC90
In short: as §1

[4] = test system: PC-3 (prostate cancer); assay: as above; format: cell-based; settings: Homo sapiens, PC-3, 72 h; for IC50: read-out: IC50; for IC90: read-out: IC90
In short: as §1

[5] = test system: PANC-1 (pancreatic cancer); assay: as above; format: cell-based; settings: Homo sapiens, PANC-1, 72 h; for IC50: read-out: IC50; for IC90: read-out: IC90
In short: as §1

[6] = test system: MG63 (osteosarcoma); assay: as above; format: cell-based; settings: for IC50 / IC90: Homo sapiens, MG-63, 72 h; for IC50: read-out: IC50; for IC90: read-out: IC90
In short: as §1

[7] = test system: Hep G2 (human liver cancer cell); assay: as above; format: cell-based; settings: Homo sapiens, HepG2, Hep G2, 72 h; for IC50: read-out: IC50; for IC90: read-out: IC90
In short: as §1

[8] = test system: U87 MG (malignant glioma cell); assay: as above; format: cell-based; settings: Homo sapiens, U-87 MG, U87-MG, 72 h; for IC50: read-out: IC50; for IC90: read-out: IC90
In short: as §1

[9] = test system: RKO (human colon adenocarcinoma cell); assay: as above; format: cell-based; settings: Homo sapiens; for IC50: read-out: IC50; for IC90: read-out: IC90
In short: as §1

[10] = test system: Hep-2 (laryngeal carcinoma); assay: as above; format: cell-based; settings: Homo sapiens, HEp-2, 72 h; for IC50: read-out: IC50; for IC90: read-out: IC90
In short: as §1

[11] = test system: A549 (human lung cancer); assay: as above; format: cell-based; settings: Homo sapiens, A549, 72 h; for IC50: read-out: IC50; for IC90: read-out: IC90
In short: as §1

[12] = test system: SK-OV-3 (ovarian cancer cell); assay: as above; format: cell-based; settings: Homo sapiens, SK-OV-3, 72 h; for IC50: read-out: IC50; for IC90: read-out: IC90
In short: as §1

[13] = test system: Becap37 (human breast cancer cell); assay: as above; format: cell-based; settings: Homo sapiens, Becap-37, 72 h; for IC50: read-out: IC50; for IC90: read-out: IC90
In short: as §1

[14] = test system: MGC 803 (human gastric cancer cell); assay: as above; format: cell-based; settings: Homo sapiens, MGC-803, 72 h; for IC50: read-out: IC50; for IC90: read-out: IC90
In short: as §1

[15] = test system: RPMI8226 (multiple myeloma); assay: MTT growth inhibition of multiple myeloma cells, 72 h; format: cell-based, human; settings: Homo sapiens, RPMI 8226, 72 h; for IC50: read-out: IC50; for IC90: read-out: IC90
In short: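 Viability read by MTT after 72 h at 37° C, 5% CO2: compounds from a 10 mg/mL DMSO stock were diluted in medium and added at several concentrations to 6000 RPMI8226 cells per well in 1640 medium plus 10% FBS.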

[16] = test system: Jurkat (acute lymphoblastic leukemia, ALL); assay: MTT growth inhibition of leukemia cells, 72 h; format: cell-based, human; settings: Homo sapiens, 72 h; for IC50: read-out: IC50; for IC90: read-out: IC90
In short: (§2)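 Seed 6000 cells per well in serum-supplemented RPMI-1640 (10% FBS); next day add derivatives at several concentrations, diluted from a 10 mg/mL DMSO stock; incubate 72 h at 37 °C, 5% CO2; quantify surviving cells with MTT.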

[17] = test system: H9 (acute lymphoblastic leukemia, ALL); assay: MTT growth inhibition of leukemia cells, 72 h; format: cell-based, human; settings: Homo sapiens, H9, 72 h; for IC50: read-out: IC50; for IC90: read-out: IC90
In short: as §2

[18] = test system: Kasumi-1 (acute myeloid leukemia M2 type, AML-M2); assay: MTT growth inhibition of leukemia cells, 72 h; format: cell-based, human; settings: Homo sapiens, Kasumi-1, 72 h; for IC50: read-out: IC50; for IC90: read-out: IC90
In short: as §2

[19] = test system: K562/adr (drug-resistant, chronic myeloid leukemia, CML); assay: MTT growth inhibition of leukemia cells, 72 h; format: cell-based, human; settings: Homo sapiens, K562/Adr; for IC50: read-out: IC50; for IC90: read-out: IC90
In short: as §2

[20] = test system: NB4 (acute promyelocytic leukemia, AML); assay: MTT growth inhibition of leukemia cells, 72 h; format: cell-based, human; settings: Homo sapiens, NB4, 72 h; for IC50: read-out: IC50; for IC90: read-out: IC90
In short: as §2

IC50 [1]: 5 µg/mL (≈ 13.8 µM)
IC90 [1]: > 16 µg/mL
IC50 [2]: 15.5 µg/mL (≈ 42.7 µM)
IC90 [2]: > 16 µg/mL
IC50 [3]: 8.5 µg/mL (≈ 23.5 µM)
IC90 [3]: > 16 µg/mL
IC50 [4]: 14.4 µg/mL (≈ 39.8 µM)
IC90 [4]: > 16 µg/mL
IC50 [5]: 3.08 µg/mL (≈ 8.5 µM)
IC90 [5]: 13.3 µg/mL (≈ 36.8 µM)
IC50 [6]: 4.86 µg/mL (≈ 13.4 µM)
IC90 [6]: > 16 µg/mL
IC50 [7]: 10.6 µg/mL (≈ 29.2 µM)
IC90 [7]: > 16 µg/mL
IC50 [8]: > 16 µg/mL
IC90 [8]: > 16 µg/mL
IC50 [9]: 2.77 µg/mL (≈ 7.64 µM)
IC90 [9]: > 16 µg/mL
IC50 [10]: 6.82 µg/mL (≈ 18.8 µM)
IC90 [10]: > 16 µg/mL
IC50 [11]: 10.6 µg/mL (≈ 29.1 µM)
IC90 [11]: 24.2 µg/mL (≈ 66.9 µM)
IC50 [12]: > 16 µg/mL
IC90 [12]: > 16 µg/mL
IC50 [13]: 14.2 µg/mL (≈ 39.3 µM)
IC90 [13]: > 16 µg/mL
IC50 [14]: 9.22 µg/mL (≈ 25.4 µM)
IC90 [14]: 23.2 µg/mL (≈ 64.2 µM)
IC50 [15]: 8.4 µg/mL (≈ 23.2 µM)
IC90 [15]: > 16 µg/mL
IC50 [16]: 5.54 µg/mL (≈ 15.3 µM)
IC90 [16]: 17.1 µg/mL (≈ 47 µM)
IC50 [17]: 6.4 µg/mL (≈ 17.7 µM)
IC90 [17]: > 16 µg/mL
IC50 [18]: 2.35 µg/mL (≈ 6.48 µM)
IC90 [18]: 7.79 µg/mL (≈ 21.5 µM)
IC50 [19]: 2.3 µg/mL (≈ 6.35 µM)
IC90 [19]: 6.61 µg/mL (≈ 18.2 µM)
IC50 [20]: 1.93 µg/mL (≈ 5.33 µM)
IC90 [20]: 9.65 µg/mL (≈ 26.6 µM)
Structure (SMILES): CCC(=O)OCc1oc2c(c1C)C(=O)C(=O)c1c-2ccc2c(C)cccc12 [BS-TA-A03]

IC50 [1]: 1.31 µg/mL (≈ 3.2 µM)
IC90 [1]: 16.2 µg/mL (≈ 39.6 µM)
IC50 [2]: 0.97 µg/mL (≈ 2.37 µM)
IC90 [2]: 3.81 µg/mL (≈ 9.3 µM)
IC50 [3]: 0.817 µg/mL (≈ 2 µM)
IC90 [3]: 39 µg/mL (≈ 95.2 µM)
IC50 [4]: 1.83 µg/mL (≈ 4.47 µM)
IC90 [4]: 16 µg/mL (≈ 39.1 µM)
IC50 [5]: 0.81 µg/mL (≈ 1.98 µM)
IC90 [5]: 16 µg/mL (≈ 39.1 µM)
IC50 [6]: 0.38 µg/mL (≈ 0.928 µM)
IC90 [6]: 14.9 µg/mL (≈ 36.5 µM)
IC50 [7]: 1.25 µg/mL (≈ 3.05 µM)
IC90 [7]: 9.41 µg/mL (≈ 23 µM)
IC50 [8]: 0.74 µg/mL (≈ 1.81 µM)
IC90 [8]: 8 µg/mL (≈ 19.5 µM)
IC50 [9]: 0.17 µg/mL (≈ 0.415 µM)
IC90 [9]: 16 µg/mL (≈ 39.1 µM)
IC50 [10]: 0.88 µg/mL (≈ 2.15 µM)
IC90 [10]: 29.6 µg/mL (≈ 72.3 µM)
IC50 [11]: 1.7 µg/mL (≈ 4.15 µM)
IC90 [11]: 17 µg/mL (≈ 41.5 µM)
IC50 [12]: 5.41 µg/mL (≈ 13.2 µM)
IC90 [12]: 22.8 µg/mL (≈ 55.8 µM)
IC50 [13]: 0.43 µg/mL (≈ 1.05 µM)
IC90 [13]: 3.73 µg/mL (≈ 9.11 µM)
IC50 [14]: 0.79 µg/mL (≈ 1.93 µM)
IC90 [14]: 7.25 µg/mL (≈ 17.7 µM)
IC50 [15]: 0.52 µg/mL (≈ 1.27 µM)
IC90 [15]: 2.9 µg/mL (≈ 7.08 µM)
IC50 [16]: 0.96 µg/mL (≈ 2.34 µM)
IC90 [16]: 5.3 µg/mL (≈ 12.9 µM)
IC50 [17]: 0.7 µg/mL (≈ 1.71 µM)
IC90 [17]: 2.3 µg/mL (≈ 5.62 µM)
IC50 [18]: 0.66 µg/mL (≈ 1.61 µM)
IC90 [18]: 1.91 µg/mL (≈ 4.66 µM)
IC50 [19]: 1.13 µg/mL (≈ 2.76 µM)
IC90 [19]: 2.95 µg/mL (≈ 7.2 µM)
IC50 [20]: 0.26 µg/mL (≈ 0.635 µM)
IC90 [20]: 0.96 µg/mL (≈ 2.34 µM)
Structure (SMILES): Cc1c(CN(C)Cc2ccccc2)oc2c1C(=O)C(=O)c1c-2ccc2c(C)cccc12 [BS-TA-B01]
improvement of anti-MG63 activity as compared with tanshinone I ([6]; MG63, vs tanshinone I): ~3 fold

IC50 [1]: 3.99 µg/mL (≈ 11.5 µM)
IC90 [1]: 11 µg/mL (≈ 31.5 µM)
IC50 [2]: 5.55 µg/mL (≈ 16 µM)
IC90 [2]: 10.3 µg/mL (≈ 29.8 µM)
IC50 [3]: 8.8 µg/mL (≈ 25.3 µM)
IC90 [3]: 43.6 µg/mL (≈ 125 µM)
IC50 [4]: 5.39 µg/mL (≈ 15.5 µM)
IC90 [4]: 12.3 µg/mL (≈ 35.5 µM)
IC50 [5]: 3.14 µg/mL (≈ 9.04 µM)
IC90 [5]: 16 µg/mL (≈ 46.1 µM)
IC50 [6]: 4.53 µg/mL (≈ 13 µM)
IC90 [6]: 13 µg/mL (≈ 37.4 µM)
IC50 [7]: 4.69 µg/mL (≈ 13.5 µM)
IC90 [7]: 22.1 µg/mL (≈ 63.6 µM)
IC50 [8]: 2.36 µg/mL (≈ 6.79 µM)
IC90 [8]: 3.85 µg/mL (≈ 11.1 µM)
IC50 [9]: 0.49 µg/mL (≈ 1.41 µM)
IC90 [9]: 14.6 µg/mL (≈ 41.9 µM)
IC50 [10]: 6.11 µg/mL (≈ 17.6 µM)
IC90 [10]: 18.5 µg/mL (≈ 53.1 µM)
IC50 [11]: 0.8 µg/mL (≈ 2.3 µM)
IC90 [11]: 4.43 µg/mL (≈ 12.8 µM)
IC50 [12]: 12.8 µg/mL (≈ 36.9 µM)
IC90 [12]: 21.7 µg/mL (≈ 62.4 µM)
IC50 [13]: 4 µg/mL (≈ 11.5 µM)
IC90 [13]: 9.37 µg/mL (≈ 27 µM)
IC50 [14]: 3.86 µg/mL (≈ 11.1 µM)
IC90 [14]: 7.99 µg/mL (≈ 23 µM)
IC50 [15]: 2.83 µg/mL (≈ 8.15 µM)
IC90 [15]: 5.87 µg/mL (≈ 16.9 µM)
IC50 [16]: 2.36 µg/mL (≈ 6.79 µM)
IC90 [16]: 6.15 µg/mL (≈ 17.7 µM)
IC50 [17]: 3.3 µg/mL (≈ 9.5 µM)
IC90 [17]: 6.8 µg/mL (≈ 19.6 µM)
IC50 [18]: 0.81 µg/mL (≈ 2.33 µM)
IC90 [18]: 2 µg/mL (≈ 5.76 µM)
IC50 [19]: 1.22 µg/mL (≈ 3.51 µM)
IC90 [19]: 2.69 µg/mL (≈ 7.74 µM)
IC50 [20]: 0.92 µg/mL (≈ 2.65 µM)
IC90 [20]: 3.01 µg/mL (≈ 8.66 µM)
Structure (SMILES): CCN(C)Cc1oc2c(c1C)C(=O)C(=O)c1c-2ccc2c(C)cccc12 [BS-TA-B03]
